This note sets out measurements from ChEMBL document CHEMBL1156762, “Deciphering the mechanism of carbonic anhydrase inhibition with coumarins and thiocoumarins” (J Med Chem, 2010).

Assay [1] addresses T1, Carbonic anhydrase 15 (Mus musculus, UniProt Q99N23).
T1 sequence (Q99N23 whole entry): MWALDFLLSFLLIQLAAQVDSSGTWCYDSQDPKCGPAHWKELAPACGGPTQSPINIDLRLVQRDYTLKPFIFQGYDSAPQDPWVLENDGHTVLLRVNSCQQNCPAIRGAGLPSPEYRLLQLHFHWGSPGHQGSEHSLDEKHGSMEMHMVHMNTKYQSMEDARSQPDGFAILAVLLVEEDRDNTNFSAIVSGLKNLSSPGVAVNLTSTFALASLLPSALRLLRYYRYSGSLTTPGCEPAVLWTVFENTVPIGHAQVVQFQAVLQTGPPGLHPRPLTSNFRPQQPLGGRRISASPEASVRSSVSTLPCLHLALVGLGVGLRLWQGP

In assay [2] the target is Carbonic anhydrase 13 (Mus musculus, UniProt Q9D6N1).
Chain of Carbonic anhydrase 13 (Q9D6N1 whole entry): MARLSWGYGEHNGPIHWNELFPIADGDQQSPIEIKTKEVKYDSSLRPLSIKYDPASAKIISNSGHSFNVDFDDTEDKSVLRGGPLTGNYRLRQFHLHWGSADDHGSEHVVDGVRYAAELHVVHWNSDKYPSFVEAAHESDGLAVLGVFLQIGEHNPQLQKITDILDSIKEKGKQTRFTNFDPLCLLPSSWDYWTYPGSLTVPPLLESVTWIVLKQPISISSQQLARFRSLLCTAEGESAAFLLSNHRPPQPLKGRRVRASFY
Assay [3] addresses Carbonic anhydrase 9 (Homo sapiens, UniProt Q16790).
Assay [4] has as its target Carbonic anhydrase 5A, mitochondrial (Homo sapiens, UniProt P35218).
Assay [5] concerns the target Carbonic anhydrase 6 (Homo sapiens, UniProt P23280).
In assay [6] the target is Carbonic anhydrase 7 (Homo sapiens, UniProt P43166).
Chain of Carbonic anhydrase 7 (P43166 whole entry): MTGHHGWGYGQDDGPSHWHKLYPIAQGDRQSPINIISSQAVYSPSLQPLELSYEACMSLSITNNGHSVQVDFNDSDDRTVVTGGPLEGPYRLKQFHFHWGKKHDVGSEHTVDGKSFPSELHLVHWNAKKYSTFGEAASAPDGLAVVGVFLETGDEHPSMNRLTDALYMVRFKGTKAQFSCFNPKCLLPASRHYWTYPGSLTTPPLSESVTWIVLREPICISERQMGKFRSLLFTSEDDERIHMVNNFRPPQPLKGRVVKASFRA
The target in assay [7] is Carbonic anhydrase 3 (Homo sapiens, UniProt P07451).
Chain of Carbonic anhydrase 3 (P07451 whole entry): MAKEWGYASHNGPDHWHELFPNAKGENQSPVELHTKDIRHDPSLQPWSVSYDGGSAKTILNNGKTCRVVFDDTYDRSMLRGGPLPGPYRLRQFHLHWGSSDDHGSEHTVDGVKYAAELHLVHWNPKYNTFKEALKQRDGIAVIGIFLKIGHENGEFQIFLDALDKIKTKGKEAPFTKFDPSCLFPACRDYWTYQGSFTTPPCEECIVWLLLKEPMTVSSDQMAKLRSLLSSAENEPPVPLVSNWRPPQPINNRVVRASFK
For assay [8], the target named is Carbonic anhydrase 4 (Homo sapiens, UniProt P22748).
Chain of Carbonic anhydrase 4 (P22748 whole entry): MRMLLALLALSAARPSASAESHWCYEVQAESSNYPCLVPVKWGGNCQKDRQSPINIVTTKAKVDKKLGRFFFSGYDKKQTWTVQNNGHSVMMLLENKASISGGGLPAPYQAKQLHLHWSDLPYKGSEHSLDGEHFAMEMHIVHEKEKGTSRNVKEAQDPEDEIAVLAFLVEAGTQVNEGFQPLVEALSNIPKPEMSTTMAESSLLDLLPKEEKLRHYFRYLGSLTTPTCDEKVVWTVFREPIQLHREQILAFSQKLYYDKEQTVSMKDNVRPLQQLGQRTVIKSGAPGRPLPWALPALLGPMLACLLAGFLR
Assay [9] has as its target T2, Carbonic anhydrase 2 (Homo sapiens, UniProt P00918).
In assay [10] the target is Carbonic anhydrase 5B, mitochondrial (Homo sapiens, UniProt Q9Y2D0).
Chain of Carbonic anhydrase 5B, mitochondrial (Q9Y2D0 whole entry): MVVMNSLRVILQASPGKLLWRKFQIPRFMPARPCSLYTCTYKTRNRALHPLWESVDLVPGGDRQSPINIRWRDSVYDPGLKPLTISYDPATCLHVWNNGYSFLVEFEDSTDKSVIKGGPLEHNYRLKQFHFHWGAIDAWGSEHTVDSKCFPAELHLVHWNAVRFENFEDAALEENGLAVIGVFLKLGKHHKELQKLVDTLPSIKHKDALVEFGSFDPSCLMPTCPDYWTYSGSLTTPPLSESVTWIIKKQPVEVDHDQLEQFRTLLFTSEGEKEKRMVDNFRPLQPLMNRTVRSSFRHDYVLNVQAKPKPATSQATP
Assay [11] concerns the target Carbonic anhydrase 14 (Homo sapiens, UniProt Q9ULX7).
For assay [12], the target named is Carbonic anhydrase 12 (Homo sapiens, UniProt O43570).
Chain of Carbonic anhydrase 12 (O43570 whole entry): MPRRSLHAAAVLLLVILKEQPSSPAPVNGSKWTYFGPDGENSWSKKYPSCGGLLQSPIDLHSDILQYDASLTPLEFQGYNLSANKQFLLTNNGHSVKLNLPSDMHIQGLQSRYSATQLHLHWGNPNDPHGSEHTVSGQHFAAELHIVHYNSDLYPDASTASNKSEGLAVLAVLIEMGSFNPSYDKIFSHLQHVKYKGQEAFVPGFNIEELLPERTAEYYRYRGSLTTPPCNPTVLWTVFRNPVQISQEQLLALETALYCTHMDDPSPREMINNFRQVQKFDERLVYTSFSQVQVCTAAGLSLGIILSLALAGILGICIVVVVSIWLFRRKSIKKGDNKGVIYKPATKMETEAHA
The target in assay [13] is T2, Carbonic anhydrase 2. This is another data set of the same source.

Chain of Carbonic anhydrase 5A, mitochondrial (P35218 whole entry): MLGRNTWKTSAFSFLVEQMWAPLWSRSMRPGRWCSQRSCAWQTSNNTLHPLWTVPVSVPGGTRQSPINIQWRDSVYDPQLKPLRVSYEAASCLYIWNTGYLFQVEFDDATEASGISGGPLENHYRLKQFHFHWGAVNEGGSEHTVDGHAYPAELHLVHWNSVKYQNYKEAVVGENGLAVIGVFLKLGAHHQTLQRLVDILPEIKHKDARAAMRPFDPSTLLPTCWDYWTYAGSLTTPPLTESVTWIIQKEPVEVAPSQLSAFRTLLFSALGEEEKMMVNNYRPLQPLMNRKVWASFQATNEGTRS
Chain of Carbonic anhydrase 14 (Q9ULX7 whole entry): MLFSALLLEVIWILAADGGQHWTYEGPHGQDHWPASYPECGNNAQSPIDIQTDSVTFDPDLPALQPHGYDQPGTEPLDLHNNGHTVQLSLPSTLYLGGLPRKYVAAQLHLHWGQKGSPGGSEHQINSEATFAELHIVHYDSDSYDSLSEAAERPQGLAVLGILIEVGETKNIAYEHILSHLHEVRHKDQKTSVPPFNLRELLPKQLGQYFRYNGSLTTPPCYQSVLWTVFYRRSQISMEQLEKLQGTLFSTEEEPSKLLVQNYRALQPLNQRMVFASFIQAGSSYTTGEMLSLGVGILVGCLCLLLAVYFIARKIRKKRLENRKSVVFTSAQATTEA
Chain of Carbonic anhydrase 6 (P23280 whole entry): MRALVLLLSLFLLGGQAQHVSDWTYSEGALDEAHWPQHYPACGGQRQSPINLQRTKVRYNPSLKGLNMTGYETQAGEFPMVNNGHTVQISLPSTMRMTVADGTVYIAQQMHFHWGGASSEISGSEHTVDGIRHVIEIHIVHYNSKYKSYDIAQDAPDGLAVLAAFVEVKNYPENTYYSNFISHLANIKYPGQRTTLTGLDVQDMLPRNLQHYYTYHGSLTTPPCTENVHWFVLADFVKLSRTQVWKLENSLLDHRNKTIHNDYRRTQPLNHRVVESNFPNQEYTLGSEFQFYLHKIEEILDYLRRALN

`CCCCOc1ccc2ccc(=O)oc2c1` [7-BUTOXYCOUMARIN]: the Ki (commonly a measure of affinity in units of concentration, obtained from inhibition or displacement) in assay [1] was 65.2 µM; in assay [2] it was 6.1 µM; in assay [3], 4.9 µM; in assay [4], 9 µM.
For `NCc1ccc2oc(=O)ccc2c1`, the figures for the Ki in assay [2] and in assay [3] were 0.04 µM and 8.4 µM, respectively.
As for `O=c1ccc2ccc(CCc3ccccc3)cc2o1`, the Ki is 8.5 µM in assay [5], 44.5 µM in assay [1], 7.3 µM in assay [2] and 5.8 µM in [3].
With `COc1ccc2ccc(=O)oc2c1` [HERNIARIN], the Ki in assay [5] was 61.2 µM; in assay [1], greater than 500 µM; in assay [6] it was 9.1 µM; in assay [4] it was greater than 500 µM; in assay [7], 161 µM; in [8] it was 7.8 µM.
For the molecule `COc1ccc2c(C(=O)O)cc(=O)oc2c1`, the Ki amounted to 0.045 µM in assay [2] and 4.1 µM in assay [3].
In the case of `COc1ccc2oc(=O)c(C(=O)O)cc2c1`, the Ki in [5] was 10.5 µM; in assay [1], 7.2 µM; in [2], 8.1 µM; in [9], 13.4 µM; in assay [10], 7.6 µM; in [6], 4.9 µM. Moreover, the Ki in [11] amounted to 39.6 µM; in [3] it was 5.7 µM; in [12] it was 6.8 µM; in assay [4] it was 8.7 µM; in [7] it was 9 µM; in assay [8] it was 4.9 µM. For the same molecule, in [13], affinity was put at a Ki of 0.059 µM.
Regarding `COC(=O)c1cc2cc(CO)ccc2oc1=O`, the Ki is 7.4 µM in assay [1], 7.4 µM in [2], 8.7 µM in assay [3] and 6.5 µM in assay [8].
As to `O=c1ccc2ccccc2o1` [COUMARIN], the figures for the Ki in [6], in assay [7] and in assay [8] were 3.3 µM, 5.6 µM and 62.2 µM, respectively.
In the case of `CCOC(=O)c1cc2cc(CO)ccc2oc1=O`, the Ki was 1.5 µM in [5]; 24.6 µM in [9]; 2.9 µM in assay [10]; 0.045 µM in [6]; 4.6 µM in [11]; 6.2 µM in assay [3]. The Ki in [12] stood at 25.6 µM; in [4], 3 µM; in [7], 60.9 µM; in [8], 0.048 µM; in [13], 213 µM.
As for `CCOc1ccc2ccc(=O)oc2c1`, the Ki in assay [5] came to 5.8 µM; in [1] it was 76.3 µM; in assay [2], 27.4 µM; in [10], 60.9 µM; in assay [6], 7.2 µM; in [11] it was 4.7 µM. In addition, the Ki in assay [3] was found to be 1.6 µM; in assay [12], 4.7 µM; in assay [4], 7.3 µM; in [7], 29 µM; in assay [8] it was 22.7 µM.
In the case of `COc1cc2oc(=O)ccc2cc1[C@@H](O)CC(C)C`, the values for the Ki in assay [1] and in assay [2] were 93.1 µM and 9.9 µM, respectively.
For `O=C(O)c1cc2ccccc2sc1=O`, the Ki was 8.8 µM in [5], 4.8 µM in assay [1], 5.6 µM in [2] and greater than 500 µM in assay [7].
In the case of `O=c1ccc2cc(CO)ccc2o1`, the Ki was 7.4 µM in [1], 0.047 µM in [2] and 8.4 µM in [3].
For the molecule `O=C(O)c1cc2ccccc2oc1=O` [COUMARIN-3-CARBOXYLIC ACID], the Ki in assay [5] is 31.3 µM; in [1], 5.6 µM; in assay [2], 20.3 µM; in assay [9] it was greater than 500 µM; in [10], 6.8 µM; in [6] it was 5.1 µM. Further, the Ki in [11] turned out to be 7.4 µM; in assay [3], 6.5 µM; in [12], 2.9 µM; in assay [4] it was 9 µM; in assay [7], 6.6 µM; in assay [8], 3.8 µM.
With `CCOC(=O)c1cc2ccc(OC)cc2oc1=O`, the Ki was determined as 42 µM in assay [5]; 6.6 µM in assay [1]; 0.045 µM in assay [2]; 8 µM in assay [10]; 71.7 µM in assay [7]; 7.2 µM in assay [8].
As to `O=c1ccc2cc(C[N+]34CN5CN(CN(C5)C3)C4)ccc2o1`, the inhibition constant Ki in [2] is 3.8 µM; in assay [3] it was 3 µM.
Consider `COc1cccc2cc(C(=O)O)c(=O)oc12`, for which the Ki in assay [3] amounted to 5.4 µM.
Turning to `Cc1ccc2oc(=O)c(C(=O)O)cc2c1`, the Ki in [5] is 31.7 µM; in assay [6] it was 29.6 µM; in assay [3] it was 0.048 µM; in assay [7], greater than 500 µM.
`O=C(O)c1cc2cc(CO)ccc2oc1=O`: the Ki in assay [1] was found to be 8.6 µM; in assay [2], 3.1 µM.
For the molecule `CCCOc1ccc2ccc(=O)oc2c1` [7-PROPOXYCOUMARIN], the figures for the Ki in assay [2], in assay [7] and in assay [8] were 6.6 µM, greater than 500 µM and 24.6 µM, respectively.
